This note sets out measurements from ChEMBL document CHEMBL1137908, “Synthesis and antibacterial activity of novel 6-fluoro-1-[(1R,2S)-2-fluorocyclopropan-1-yl]-4-oxoquinoline-3-carboxylic acids bearing cyclopropane-fused 2-amino-8-azabicyclo[4.3.0]nonan-8-yl substituents at the C-7 position” (Bioorg Med Chem Lett, 2004).

In brackets after ≈: the same amount, converted by molar mass. Bounds are passed on as bounds.

The subject of one experiment is Enterococcus faecalis. Put plainly: Antibacterial activity against Enterococcus faecalis ATCC 19433 was determined. It counts as functional. To be noted: Enterococcus faecalis, ATCC 19433; read-out: MIC.
A further experiment concerns the target DNA topoisomerase II (Homo sapiens, UniProt P11388+Q02880). Put plainly: Inhibitory concentration against human DNA topoisomerase II. The experiment is classed as protein assay.
Experiment [1] concerns Staphylococcus aureus. Put plainly: Antibacterial activity against Staphylococcus aureus FDA 209P was determined. Conditions: Staphylococcus aureus; read-out: MIC. The experiment is classed as functional.
The subject of a further experiment is Escherichia coli. Put plainly: Antibacterial activity against Escherichia coli NIHJ was determined. The experiment is classed as functional. Conditions: Escherichia coli; read-out: MIC.
For a further experiment, the system named is Klebsiella pneumoniae. Put plainly: Antibacterial activity against Klebsiella pneumoniae type II was determined. The experiment is classed as functional. To be noted: Klebsiella pneumoniae; read-out: MIC.
For the next experiment, the system named is Streptococcus pneumoniae. The experiment in a line: Antibacterial activity against Penicillin-resistant Streptococcus pneumoniae (PRSP) J-24 was determined. It counts as functional. To be noted: Streptococcus pneumoniae; read-out: MIC.
For a further experiment, the system named is Streptococcus pyogenes. Put plainly: Antibacterial activity against Streptococcus pyogenes G-36 was determined. It counts as functional. To be noted: Streptococcus pyogenes; read-out: MIC.
The next experiment deals with Streptococcus mitis. The experiment in a line: Antibacterial activity against Streptococcus mitis IID685 was determined. It counts as functional. To be noted: Streptococcus mitis; read-out: MIC.
Experiment [2] can be described thus: Ratio of binding to human DNA topoisomerase II and Staphylococcus aureus DNA topoisomerase IV.
In experiment [3] the test system is Staphylococcus aureus. The experiment in a line: Antibacterial activity against methicillin-resistant Staphylococcus aureus (MRSA) 870307 was determined. The experiment is classed as functional. To be noted: Staphylococcus aureus; read-out: MIC.
Experiment [4] relates to Staphylococcus epidermidis. The experiment in a line: Antibacterial activity against Staphylococcus epidermidis 56500 was determined. Conditions: Staphylococcus epidermidis; read-out: MIC. It counts as functional.
The target in experiment [5] is T1, DNA topoisomerase 4 subunit A (Staphylococcus aureus subsp. aureus Mu50, UniProt Q931S2).
T1 sequence (Q931S2 whole entry): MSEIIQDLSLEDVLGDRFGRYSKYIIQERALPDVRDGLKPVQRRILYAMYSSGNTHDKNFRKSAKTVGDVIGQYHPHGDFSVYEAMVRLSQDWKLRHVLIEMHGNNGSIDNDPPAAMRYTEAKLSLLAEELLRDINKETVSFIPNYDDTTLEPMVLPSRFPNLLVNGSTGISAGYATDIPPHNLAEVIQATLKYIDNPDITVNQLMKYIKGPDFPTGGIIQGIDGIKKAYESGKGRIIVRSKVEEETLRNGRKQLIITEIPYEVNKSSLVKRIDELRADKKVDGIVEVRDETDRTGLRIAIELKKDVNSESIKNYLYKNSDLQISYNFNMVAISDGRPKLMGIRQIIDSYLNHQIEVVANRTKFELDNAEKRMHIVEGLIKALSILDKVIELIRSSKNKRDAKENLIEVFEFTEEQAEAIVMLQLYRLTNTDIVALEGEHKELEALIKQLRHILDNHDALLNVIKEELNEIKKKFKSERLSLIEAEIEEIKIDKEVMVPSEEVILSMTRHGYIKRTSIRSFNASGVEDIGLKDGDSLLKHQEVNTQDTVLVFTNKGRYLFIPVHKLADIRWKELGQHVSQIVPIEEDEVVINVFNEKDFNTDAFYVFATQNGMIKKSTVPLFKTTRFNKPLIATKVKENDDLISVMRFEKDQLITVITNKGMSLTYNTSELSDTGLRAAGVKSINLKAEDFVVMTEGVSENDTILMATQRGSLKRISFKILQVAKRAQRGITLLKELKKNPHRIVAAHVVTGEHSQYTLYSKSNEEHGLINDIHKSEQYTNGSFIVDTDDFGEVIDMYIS
Put plainly: Inhibitory concentration against Staphylococcus aureus DNA topoisomerase IV.

Regarding `Cc1c(N2C[C@H]3CCC[C@@H](N)[C@H]3C2)c(F)c(N)c2c(=O)c(C(=O)O)cn([C@@H]3C[C@@H]3F)c12`, the minimum inhibitory concentration (MIC) (usually the lowest concentration that inhibits growth of the organism) in the experiment on Enterococcus faecalis is 20 ng/mL (≈ 0.0462 µM); in the experiment with Staphylococcus aureus [1], 6 ng/mL (≈ 0.0139 µM); in the experiment on Escherichia coli it was 6 ng/mL (≈ 0.0139 µM); in the experiment with Klebsiella pneumoniae, 20 ng/mL (≈ 0.0462 µM); in the experiment with Streptococcus pneumoniae it was no more than 3 ng/mL; with Streptococcus pyogenes it was no more than 3 ng/mL. The results for the minimum inhibitory concentration (MIC) (with Streptococcus mitis; in the experiment with Staphylococcus aureus [3]; in experiment [4]) were no more than 3 ng/mL, 10 ng/mL (≈ 0.0231 µM) and no more than 3 ng/mL, respectively. For the same compound, the figures for the 50% inhibitory concentration (IC50) (on DNA topoisomerase II; in experiment [5]) were 4660 ng/mL (≈ 10.8 µM) and 717 nM, respectively. The Selectivity in experiment [2] came out at 14.7.

As to `Cc1c(N2C[C@H]3CC[C@H]4C[C@@]4(N)[C@H]3C2)c(F)c(N)c2c(=O)c(C(=O)O)cn([C@@H]3C[C@@H]3F)c12`, the MIC in the experiment with Enterococcus faecalis was 20 ng/mL (≈ 0.045 µM); in the experiment on Staphylococcus aureus [1], no more than 3 ng/mL; with Escherichia coli it was no more than 3 ng/mL; in the experiment on Klebsiella pneumoniae it was 10 ng/mL (≈ 0.0225 µM); in the experiment on Streptococcus pneumoniae, 6 ng/mL (≈ 0.0135 µM); with Streptococcus pyogenes it was no more than 3 ng/mL. Also, the minimum inhibitory concentration (MIC) was no more than 3 ng/mL in the experiment with Streptococcus mitis, 10 ng/mL (≈ 0.0225 µM) in the experiment with Staphylococcus aureus [3] and no more than 3 ng/mL in experiment [4]. Also, the half-inhibitory concentration (IC50) (as a rule, the midpoint of a concentration-inhibition curve) at DNA topoisomerase II was 34210 ng/mL (≈ 77 µM); in experiment [5] it was 810 nM. The Selectivity in [2] was found to be 93.2.
